Assay results as given in patent US4123456A, “Novel 11-hydroxy-9-keto-5,6-cis-13,14-cis-prostadienoic acid derivatives” (American Cyanamid Company, priority 1977, dated 1978).

Tests used:
[1] = test system: ulcerogenic properties of indomethacin; experiment: protection against the ulcerogenic properties of indomethacin; type: in vivo, Rats; settings: 2.5 or lower considered active
Procedure: The compounds of this invention provide protection against the ulcerogenic properties of indomethacin. This assay was carried out in the following manner.
Rats were starved for 48 hours (water was given ad libitum). Indomethacin (20 mg./kg. of body weight) was administered by the subutaneous route and one-half the dose of the test compound was administered by gavage at the same time. After 3 hours, the second half of the test compound was administered also by Gavage. Five hours after the administration of indomethacin the animals were decapitated and the stomachs removed. The stomachs were washed with distilled water, blotted on gauze, cut along the larger curvature, and the contents rinsed with distilled water. The stomachs were spread out, pinned on a cork and visualized under magnifying glass for ulcers. The criteria for scoring of ulcers was as previously reported. [Abdel-Galil et al. Brit. J. Pharmac. Chemotherapy 33:1-14 (1968)].
1 Petechial hemmorhage or pin point ulcer
3 Many ulcers, a few large
4 Many ulcers, mainly large
Control animals treated with indomethacin but not test compound consistently give scores of about 3.0-3.5. Control animals treated with neither indomethacin nor test compound give scores of about 0.5-0.8. Compounds producing a score of 2.5 or lower are considered to be active.

gastric acid secretion = gastric acid secretion inhibition, "Shay rat" procedure; type: in vivo, rats (male, CFE strain); settings: intraduodenal dose 100 mg./kg. of body weight; 20% or more considered active
Procedure: The novel compounds of the present invention are also effective inhibitors of gastric acid secretion and of ulcer development in experimental animals, and thus are potentially valuable as agents for the control of gastric acid secretion and of gastric erosion and an anti-ulcer agents. Gastric acid secretion inhibitory action is usually measured by the "Shay rat" procedure^(1,2) with some modifications as follows.
The rats (male, CFE strain) were starved for 48 hours (water was given ad libitum) to permit evacuation of stomach contents. On the morning of the experiment, under ether anesthesia, the abdominal region was shaved and a midline incision (1-1 1/2") was made with a scapel. […]
The abdominal cavity was exposed by cutting with scissors and the esophagus close to the stomach was clamped off with a hemostat, the stomach was removed by cutting above the hemostat (the esophagus was cut) and between the two sutures. […] The supernatant was collected, volume measured and recorded, 2 drops of a phenolphthalein indicator (1% in 95% ethanol) were added and the solution was titrated with 0.02N NaOH (or with 0.04N NaOH when large volumes of stomach contents were encountered) to pH 8.4 (because of usual coloring of the stomach contents, phenolphthalein was only used to permit visual indication that the end point was near) and the amount of acid present was calculated. […]

[2] = total oral dose 25 mg./kg., control score 3.2

CCCCCC(O)/C=C/[C@H]1CCC(=O)[C@@H]1CCCCCC(CC)C(=O)O (relative stereo)
Score, Treated ([1]; total oral dose 50 mg./kg., control score 3.0): 2.2

CCCCCC(O)/C=C/[C@H]1CCC(=O)[C@]1(C)CCCCCCC(=O)O (relative stereo) [8β-methyl-9-oxo-15-hydroxy-13-trans-prostenoic acid]
Score, Treated ([1]; total oral dose 12.5 mg./kg., control score 3.0): 2.0

CCCCC[C@@H](O)/C=C/[C@H]1CCC(=O)[C@@H]1CCCCSCC(=O)O (relative stereo) [9-oxo-3-thia-15-epi-hydroxy-13-trans-prostenoic acid]
Score, Treated [1, 2]: 2.3

CCCCCC(O)/C=C/[C@H]1CCC(=O)[C@@H]1CCCCC(C)(C)CC(=O)O (relative stereo) [9-oxo-15-hydroxy-3,3-dimethyl-13-trans-prostenoic acid]
Percent Inhibition of gastric acid secretion (gastric acid secretion): 51%

CCCCCC(O)/C=C/[C@H]1CCC(=O)[C@@H]1CCCCSCC(=O)O (relative stereo) [9-oxo-15-hydroxy-3-thia-13-trans-prostenoic acid]
Score, Treated [1, 2]: 1.8

CCCCCC(O)/C=C\[C@H]1CCC(=O)[C@@H]1CCCCCCC(=O)O (relative stereo) [9-oxo-15-hydroxy-13-cis-prostenoic acid, 15-hydroxy-9-oxo-13-cis-prostenoic acid]
Score, Treated ([1]; total oral dose 100 mg./kg., control score 3.0): 1.3

CCCCC(CC)C(O)/C=C/[C@H]1CCC(=O)[C@@H]1CCCCCCC(=O)O (relative stereo) [9-oxo-15-hydroxy-16-ethyl-13-trans-prostenoic acid]
Score, Treated [1, 2]: 1.7
